From publication PMC4683533, “Discovery of novel INK4C small-molecule inhibitors to promote human and murine hematopoietic stem cell ex vivo expansion” (Scientific Reports, 2015)

Assays:
LT-HSCs = assay: dependence of HSC expansion on CDK4/6 versus CDK2 (co-treatment with CDK inhibitors); assay type: cell-based, mouse
Description: To assess a direct role for p18-CDK6 signaling in HSCs expansion induced by compound 40, we used the CDK4/6-specific inhibitor PD0332991 to block CDK6 activation. As a control, we blocked CDK2 with SNS032, a CDK2 selective inhibitor. […] So here we wanted to explore whether p18SMI compound’s HSCs expansion effect was abrogated by CDK4/6 inhibitor or CDK2 inhibitor.

HSCs (CD34−LKS cells) = assay: single hematopoietic stem cell in vitro culture (nmEM colony) assay; assay type: cell-based, mouse; details: 12.5 nM, 14-day treatment
Method: We biologically assessed the 22 putative p18SMI compounds for their ability to maintain HSCs stem cell characteristics, to be specific self-renewal and multi-lineage differentiation, using single cell cultures. […] Thus, we employed single HSC culture to assess p18SMI compounds’ effect upon HSCs. CD34^−LKS cells from C57BL/6 mice were individually deposited into a 96-well plate (one cell/well). The single cell was cultured for 14 days in 100 μL of serum-free medium (Gibco) containing 100 ng/mL of mouse stem cell factor (SCF), 10 ng/mL of mouse interleukin-3 (IL-3), 25 ng/mL of human thrombopoietin (TPO), 2 U/mL of human erythropoietin (EPO) and differing concentrations of the p18SMI compound. Cells were cultured 14 days for in vitro colony formation and colonies were then cytospined and analyzed by flow cytometry to test the subpopulation of cultured cells. Neutrophils (n), macrophages (m), erythroblasts (E) or megakaryocytes (M) were identified by the cell marker of Gr-1, Mac-1, Ter-119 and CD41 using flow cytometry. The wells from each group that generated all lineages (nmEM) were counted and the ratio to the control group (DMSO) was calculated.
Single CD34^-LKS cells from C57BL/6 mice were individually deposited into each well of a 96-well plate along with 100 μL of serum free medium (Gibco) containing 100 ng/mL of mouse SCF, 10 ng/mL of mouse IL-3, 25 ng/mL of human TPO, 2 U/mL of human EPO and p18SMI compounds (different dilutions). Cells were cultured in a 37 °C, 5% CO2 incubator for 14 days for ex vivo colony formation. Colonies were then cytospined and analyzed using flow cytometry. Neutrophils (n), macrophages (m), erythroblasts (E) or megakaryocytes (M) were identified based on their cell surface maker, Gr-1, Mac-1, Ter119 and CD41. Cells were measured on an FACS analyzer (FACSArray, BD Biosciences). […] The wells from each group that generated all lineages (nmEM) were counted. The ratio of p18SMI compound treatment group to the control group (DMSO-treated) was calculated and fitted to a curve to calculate the ED50 value using GraphPad Prism v6.0.

[1] = tested on: human cord blood CD34+ cells (CD34+CD49f+ cells); assay: human cord blood CD34+ cell ex vivo culture and screen; assay type: cell-based
Method: Based on our study of murine HSCs, we further tested whether these p18SMIs could expand human cord blood CD34^+ cells in ex vivo culture. […] We cultured human cord blood CD34^+ cells for 7 days in HSCs expansion media in the presence of 200 nM of p18SMIs, and then analyzed the percentage and absolute number of CD34^+CD49f^+ cells by flow cytometry. We screened 40 p18SMIs, of which14 compounds could increase the number of CD34^+CD49f^+ cells compared with the control group (Fig. S6). […] Then we conducted a concentration gradient assay on top three p18SMIs with ED50 less than 10 nM (compounds 22, 40 and 41). […] Only in specific doses could they show their expansion effect on human HSCs (Fig. 4B).
Human cord blood samples were collected from consenting donors according to ethically approved procedures at Tianjin Central Hospital of Gynecology Obstetrics (Tianjin, China), under a protocol approved by the Ethical Committee on Medical Research at the Institute of Hematology. Human CD34^+ cord blood cells were isolated using human CD34 MicroBead Kit (MiltenyiBiotec) according to the manufacturer’s protocol after settling red cells with HES and red cells lysis with ACK Lysis Buffer.
Human CD34^+ cells were cultured in expansion medium consisting of StemSpan SFEM (StemCell Technologies) supplemented with 100 ng/mL human stem cell factor (SCF, PeproTech), 50 ng/mL human thrombopoietin (TPO, PeproTech), 100 ng/mL human FMS-like trysine kinase 3 ligand (Flt3L, PeproTech). Human CD34^+ cells were resuspended in expansion medium (5 × 10^4 cells/mL) before being aliquoted in 96-well plates (Costar, Corning Incorporated). Compounds, all with a final concentration of 200 nM, were dissolved in DMSO and added immediately in cell suspension after plating. The final concentration of DMSO in the control group was the same as in the compounds-treated group. Cells were cultured at 37 °C in 5% CO2. Based on the results of primary screening upon human cells and the results of ED50, we chose three compounds for further experiments. The expansion medium was changed to StemSpan SFEM (StemCell Technologies) supplemented with 100 ng/mL human stem cell factor (SCF, PeproTech), 100 ng/mL human thrombopoietin (TPO, PeproTech), 100 ng/mL human FMS-like trysine kinase 3 ligand (Flt3L, PeproTech) and 100 ng/mL human interleukin-6 (IL-6, PeproTech) for better expansion effect. The incubation condition was consistent with before.
Phenotypes analysis of cultured cells was performed on a BD FACS Array (Becton Dickinson Biosciences) using a combination of the following antibodies: APC anti-CD34 (BD Biosciences), PE anti-CD49f (BD Biosciences). Stained cells were washed once with PBS and then measured and analyzed on an FACS analyzer (FACSArray, BD Biosciences).

## O=C([O-])c1ccc(S(=O)(=O)NC2CCCCC2)cc1.[Na+] [Compound 40, sodium 4-(N-cyclohexylsulfamoyl)benzoate]
LT-HSCs; in the PD0332991-treated group (CDK4/6-specific inhibitor)
  number of LT-HSCs: failed to increase
LT-HSCs; in the SNS032-treated group (CDK2 selective inhibitor)
  number of LT-HSCs: still enhanced
HSCs (CD34−LKS cells)
  increase of nmEM colonies as compared to the control group: 3.16 fold
[1]; 200 nM, 7 days in HSCs expansion media, versus control group
  increase in the absolute number of CD34+CD49f+ cells: > 30%
[1]; dose response, Fig. 4B
  expansion of human HSCs in concentration gradient assay: concentration related
